Assay results taken from patent US11014896B2, “TRPA1 and TRPV4 inhibitors and methods of using the same for organ-specific inflammation and itch” (Duke University, priority 2014, dated 2021).
Entries after “also recorded” stand apart in the source; their conditions may differ.

Experiments:
[1] = target: TRPV4 (Homo sapiens, UniProt Q9HBA0); test: TRPV4-mediated calcium influx in N2a cells with targeted expression of human TRPV4; format: cell-based; parameters: expressed in transfected cells; host or cells: N2a cells; conditions: 2.5 μM inhibitor, pre-incubation 10 min; TRPV4 activated with 10 nM GSK101
Chain of TRPV4 (Q9HBA0 whole entry): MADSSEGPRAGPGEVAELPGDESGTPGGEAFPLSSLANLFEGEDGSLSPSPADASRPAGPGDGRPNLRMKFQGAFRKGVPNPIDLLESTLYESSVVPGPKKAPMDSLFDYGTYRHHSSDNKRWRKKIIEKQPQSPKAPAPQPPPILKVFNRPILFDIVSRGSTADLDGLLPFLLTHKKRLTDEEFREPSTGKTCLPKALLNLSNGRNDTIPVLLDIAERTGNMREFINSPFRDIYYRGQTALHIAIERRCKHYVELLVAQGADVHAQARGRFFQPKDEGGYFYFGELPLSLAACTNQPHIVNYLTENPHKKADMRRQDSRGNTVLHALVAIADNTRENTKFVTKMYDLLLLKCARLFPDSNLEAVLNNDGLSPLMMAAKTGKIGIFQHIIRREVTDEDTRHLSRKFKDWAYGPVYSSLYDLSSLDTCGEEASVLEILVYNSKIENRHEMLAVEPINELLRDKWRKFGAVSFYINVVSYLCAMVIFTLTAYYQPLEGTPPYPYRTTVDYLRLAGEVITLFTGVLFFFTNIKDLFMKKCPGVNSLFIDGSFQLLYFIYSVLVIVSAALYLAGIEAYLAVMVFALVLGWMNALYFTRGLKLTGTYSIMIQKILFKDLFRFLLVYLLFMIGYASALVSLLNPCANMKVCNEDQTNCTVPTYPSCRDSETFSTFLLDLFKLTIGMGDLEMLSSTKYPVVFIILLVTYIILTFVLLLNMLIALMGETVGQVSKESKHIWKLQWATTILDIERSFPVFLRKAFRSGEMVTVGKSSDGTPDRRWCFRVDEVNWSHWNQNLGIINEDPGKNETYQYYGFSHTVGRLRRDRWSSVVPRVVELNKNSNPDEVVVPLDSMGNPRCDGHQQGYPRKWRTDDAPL
Procedure: Compounds (GSK205, 16-12, 16-13, 16-14, 16-18, 16-8, and 16-8/18hy) were tested for their effect on TRPV4-mediated calcium influx in N2a cultured cells with targeted expression of human TRPV4. Ca2+ imaging was performed according to Li et al. (Environ. Health Perspect. 2011, 119, 784-93) and Moore et al. (Proc. Natl. Acad. Sci. U.S.A. 2013, 110, E3225-E3234). Briefly, Ca2+ imaging of primary mouse epidermal keratinocytes (1° MK) in response to chemical activation of TRPV4 was conducted after loading with 2 μM fura2-AM, following a ratiometric Ca2+-imaging protocol with 340/380 nm blue light for dual excitation. Ratios of emissions were acquired at 0.5 Hz. ΔR/R0 was determined as the fraction of the increase of a given ratio over baseline ratio, divided by baseline ratio. For stimulation of cells with UVB, where fura-2 was not suitable because of the proximity of stimulation with 340/380 nm vs. 295 nm, 2 μM fluo4-AM was used instead. Ca2+ imaging was carried out at 488 nm excitation, acquisition of emissions at 0.5 Hz, expressed as ΔF/F0. TRPV4 was activated with 10 nM GSK101, a specific activator, which had no effect on RFP-transfected cells. Each of the […] compounds were added to a concentration of 2.5 μM, and its effect was observed.

[2] = target: T1, human TRPA1 (Homo sapiens, UniProt O75762); test: Ca2+ transient in N2a cells transfected with human TRPA1; format: cell-based
T1 construct: expressed in transfected cells; host or cells: N2a cells, pcDNA3.1 plasmid, co-transfected with an eGFP plasmid
T1 sequence (O75762 whole entry): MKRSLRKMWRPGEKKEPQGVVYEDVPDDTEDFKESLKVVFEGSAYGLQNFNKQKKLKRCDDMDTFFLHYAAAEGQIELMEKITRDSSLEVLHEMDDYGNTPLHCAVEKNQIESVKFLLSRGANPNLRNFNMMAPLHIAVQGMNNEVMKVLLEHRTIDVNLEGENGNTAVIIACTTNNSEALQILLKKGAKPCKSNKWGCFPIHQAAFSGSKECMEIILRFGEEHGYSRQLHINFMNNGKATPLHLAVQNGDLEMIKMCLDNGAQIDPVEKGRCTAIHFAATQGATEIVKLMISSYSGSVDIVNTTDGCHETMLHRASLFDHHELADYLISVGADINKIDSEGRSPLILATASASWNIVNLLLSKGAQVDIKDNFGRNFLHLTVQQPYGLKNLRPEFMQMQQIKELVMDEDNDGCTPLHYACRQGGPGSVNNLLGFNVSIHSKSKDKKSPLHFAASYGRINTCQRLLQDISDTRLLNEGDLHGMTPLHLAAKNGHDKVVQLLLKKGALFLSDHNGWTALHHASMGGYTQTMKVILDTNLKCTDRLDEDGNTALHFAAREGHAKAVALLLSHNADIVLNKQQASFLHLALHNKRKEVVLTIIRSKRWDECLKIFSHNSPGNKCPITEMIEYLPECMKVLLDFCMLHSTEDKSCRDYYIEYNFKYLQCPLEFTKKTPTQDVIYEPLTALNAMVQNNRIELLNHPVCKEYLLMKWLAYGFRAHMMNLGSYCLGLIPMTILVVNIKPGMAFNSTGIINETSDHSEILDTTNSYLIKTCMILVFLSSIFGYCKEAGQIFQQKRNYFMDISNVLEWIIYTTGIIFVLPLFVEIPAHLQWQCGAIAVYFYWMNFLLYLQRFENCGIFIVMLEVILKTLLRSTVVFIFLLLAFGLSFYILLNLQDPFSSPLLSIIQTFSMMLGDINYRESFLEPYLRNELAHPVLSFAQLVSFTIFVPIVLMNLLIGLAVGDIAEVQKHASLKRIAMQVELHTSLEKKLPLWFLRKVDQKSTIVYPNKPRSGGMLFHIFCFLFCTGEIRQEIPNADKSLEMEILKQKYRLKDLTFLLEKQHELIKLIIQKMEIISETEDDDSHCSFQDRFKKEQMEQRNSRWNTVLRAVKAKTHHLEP
Procedure: Compounds were tested for their effect on TRPA1. N2a permanent cells were transfected with human TRPA1 cDNA, using a pcDNA3.1 expression plasmid. They were co-transfected with eGFP-expressing plasmid, or, for control, with eGFP plasmid only.

[3] = Formalin-evoked nocifensive (rubbing) behavior, whisker-pad injection, in vivo pain model in mice; parameters: species or system mouse; conditions: for formalin-induced nocifensive behavior, time course: FIG. 21D; for formalin-induced nocifensive behavior, quantitation, in particular second phase: compounds pre-injected at 0.5 mM/10 μL into whiskerpad 15 min before 4% formalin
Procedure: Compounds were tested for their effect in reducing pain using an in vivo pain model in mice. For mouse formalin-evoked irritant behavior measurements, mice were well-fed, well-rested, and tested at the same time of day, at the same time-point of their circadian rhythm. They were allowed to acclimate to a plexiglas chamber for at least 30 min before testing, and received 10 μL subcutaneous injection of 4% of formalin (diluted from an aqueous solution of commercial 37% formaldehyde with normal saline (NS)) through a 30-gauge needle into the right whiskerpad, as further detailed in Luccarini et al. (J. Pain, 2006, 7, 908-914). Normal saline was used as control injection. After injection, mice were immediately placed back into the chamber and the rubbing behavior was recorded by a private consumer-type video-camera for a 45 min observation period. The recording time was divided into 9 blocks of 5 min, and a nociceptive score was determined per block by measuring the time that the animals spent rubbing the injected area predominantly with the ipsilateral fore-paw and rarely with hind-paw. This rubbing behavior with fore-paw is evoked by pain, which is distinct from itch behavior. Behavioral analysis was conducted by observers blinded to treatment.
To investigate the effects of the specific compounds GSK205, 16-8, and 16-8/18hy on formalin-induced nociceptive behavior, mice received a single subcutaneous injection of the compounds into the whiskerpad (10 μL, dissolved in 4% DMSO) 15 min before formalin injection. Control animals received the same volume of NS, 4% DMSO.

[4] = UVB-overexposure evoked nocifensive behavior (mouse model for sunburn), topical treatment; format: in vivo; conditions: 0.5 mM in 40 μL, n=4/group
Procedure: Compounds were tested for their effect on nocifensive behavior (response to pain) following UVB overexposure. Behavioral tests were performed to evaluate the decrease in withdrawal thresholds in response to mechanical von Frey hair or thermal stimuli applied to hind paws. The Von-Frey apparatus (Ugo Basile) applied a mechanical stimulus with a flexible steel wire from underneath the hind paw. The force leading to withdrawal was determined. For the thermal stimuli test, paws were stimulated with heat from underneath applied by an infrared beam (Hargreave's test apparatus; Ugo Basile), and withdrawal latencies were recorded. The withdrawal thresholds were ascertained before and after UV exposure. Mice were exposed to UVB 3-5 days after the last application of tam/oil, using a Bio-Rad Gel Doc 2000 UV transilluminator (302 nm) for 5 min with an exposure of 600 mJ/cm^2. This represents 5-10 times the minimal erythema-inducing dose, in keeping with the rationale of inducing sunburn and studying sunburn-evoked pain.

[5] = tested on: IL-6; test: Keratinocyte IL-6 expression in UVB-exposed footpad after topical treatment; format: in vivo, mouse; conditions: 5 mM GSK205 topical
Procedure: GSK205 topical treatment: A viscous solution of 68% EtOH/5% glycerol plus 1 mM or 5 mM GSK205 (none for control) was applied to hindpaws by rubbing in 20 μL, applied at time-points 1 hour and again 10 min before UV exposure.
Routine procedures were followed as described previously (Chen et al., 2009). Mice were perfused transcardially with 30 mL PBS, followed by 30 mL 4% paraformaldehyde. Tissues, including the L5 DRGs (bilateral), and footpad preparations, were dissected and post-fixed in 4% paraformaldehyde. Tissue blocks were further cryoprotected in 30% sucrose in PBS for 24-48 hours. For mouse TRPV4, keratin-specific antibodies, phospho-ERK, IL-6, IL-1β, CXCL5 and caspase-1, tissue was prepared as frozen blocks and subsequently sectioned on a cryostat. For CD68, CD15 (neutrophil elastase) and CD3, mouse skin was prepared by 2% PFA perfusion. […]

SMILES	inhibition of TRPV4-mediated calcium influx (peak calcium concentration in the cells) [1]	inhibitory activity against human TRPA1 ([2]; 5 μM compound)	formalin-induced nocifensive behavior at the 45-min time-point ([3]; 0.5 mM/10 μL, 45-min time-point)	formalin-induced nocifensive behavior, time course ([3]; 0.5 mM/10 μL)	formalin-induced nocifensive behavior, quantitation, in particular second phase [3]	UVB-overexposure evoked nocifensive behavior (response to pain) [4]	inhibition of TRPA1 activity ([2]; doses below or equaling 25 μM)	keratinocyte expression of IL-6 in UVB-exposed footpad [5]
CN(CCc1ccc(Nc2nc(-c3ccccc3)cs2)cc1)Cc1ccccc1 [Compound 16-8]	most potent	inhibitory activity	reduction to control levels	significantly attenuated nocifensive behavior	significant attenuation of nocifensive behavior	especially effective in reducing the response to pain		
CN(CCc1ccc(Nc2nc(-c3cccnc3)cs2)cc1)Cc1ccccc1 [GSK205]	very low potency			not different from control	lack of effect	as effective as vehicle	did not inhibit TRPA1 activity	Comparably significant blocks; also recorded: attenuates keratinocyte expression of IL-6
